Test results: patent US7601336B2, “Pharmaceutical aerosol composition” (Chiesi Farmaceutici S.p.A., priority 1997, dated 2009)
Where two headings read alike, the source gives them in different places.

Legend:
[1] = BDP as a solution in HFA 134a (formulations of EP 0553298), reported in literature; cited from earlier work
[2] = Aerodynamic particle size distribution by Andersen Cascade Impactor (ACI), ten cumulative actuations, drug on plates by HPLC; format: physicochemical
Protocol: The aerosol compositions of the invention described below were prepared by the following method. The required components of a composition were added into a can in the following order: drug, non-volatile additive, absolute ethanol. After crimping of the valve on to the can, the propellant was added through the valve. The weight gain of the can after each component was added was recorded to allow the percentage, by weight, of each component in the formulation to be calculated. The aerodynamic particle size distribution of each formulation was characterized using a Multistage Cascade Impactor according to the procedure described in the European Pharmacopoeia 2nd edition, 1995, part V.5.9.1. pages 15-17. In this specific case an Andersen Cascade Impactor (ACI) was used. Results represented were obtained from ten cumulative actuations or a formulation. Deposition of the drug on each ACI plate was determined by high pressure liquid chromatography. The mass median aerodynamic diameter (MMAD) and geometric standard deviation (GSD) were calculated from plots of the cumulative percentage undersize of drug collected on each ACI plate (probit scale), against the upper cut off diameter for each respective ACI plate (log10 scale). The fine particle dose of each formulation was determined from the mass of drug collected on Stages 2 through to Filter (<5.8 μm) divided by the number of actuations per experiment.

[3] = BDP 10 mg/10 ml, ethanol 7.9%, HFA 134a, actuator orifice 0.25 mm
[4] = BDP 10 mg/10 ml, ethanol 12.9-13.0%, HFA 134a, actuator orifice 0.25 mm
[5] = BDP 10 mg/10 ml, ethanol 12.9 ± 0.1% (w/w), HFA 134a, propylene glycol 0.0% (w/w), actuator orifice 0.42 mm
[6] = BDP 10 mg/10 ml, ethanol 12.9 ± 0.1% (w/w), HFA 134a, propylene glycol 1.1% (w/w), actuator orifice 0.42 mm
[7] = BDP 10 mg/10 ml, ethanol 12.9 ± 0.1% (w/w), HFA 134a, propylene glycol 3.2% (w/w), actuator orifice 0.42 mm
[8] = BDP 10 mg/10 ml, ethanol 12.9 ± 0.1% (w/w), HFA 134a, propylene glycol 6.8% (w/w), actuator orifice 0.42 mm
[9] = BDP 10 mg/10 ml, ethanol 13.6%, H2O 0.5%, HFA 134a, actuator orifice 0.33 mm
[10] = BDP 10 mg/10 ml, ethanol 13.7%, H2O 0.1%, HFA 134a, actuator orifice 0.33 mm
[11] = BDP 20 mg/10 ml, ethanol 7.9%, HFA 134a, actuator orifice 0.25 mm
[12] = BDP 20 mg/10 ml, ethanol 13.0%, HFA 134a, actuator orifice 0.25 mm
[13] = BDP 50 mg/10 ml, ethanol 14.9%, H2O 0.1%, HFA 134a, actuator orifice 0.33 mm
[14] = BDP 50 mg/10 ml, ethanol 14.9%, H2O 0.5%, HFA 134a, actuator orifice 0.33 mm
[15] = BDP 50 mg/10 ml, ethanol 14.9 ± 0.1% (w/w), HFA 134a, PEG 0.0% (w/w), actuator orifice 0.33 mm
[16] = BDP 50 mg/10 ml, ethanol 14.9 ± 0.1% (w/w), HFA 134a, PEG 400 1.1% (w/w), actuator orifice 0.33 mm
[17] = BDP 50 mg/10 ml, ethanol 14.9 ± 0.1% (w/w), HFA 134a, PEG 8000 1.0% (w/w), actuator orifice 0.33 mm
[18] = BDP 50 mg/10 ml, ethanol 15.0 ± 0.2% (w/w), HFA 134a, glycerol 0.0% (w/w), actuator orifice 0.25 mm
[19] = BDP 50 mg/10 ml, ethanol 15.0 ± 0.2% (w/w), HFA 134a, glycerol 0.0% (w/w), actuator orifice 0.33 mm
[20] = BDP 50 mg/10 ml, ethanol 15.0 ± 0.2% (w/w), HFA 134a, glycerol 1.0% (w/w), actuator orifice 0.25 mm
[21] = BDP 50 mg/10 ml, ethanol 15.0 ± 0.2% (w/w), HFA 134a, glycerol 1.0% (w/w), actuator orifice 0.33 mm
[22] = BDP 50 mg/10 ml, ethanol 15.0 ± 0.2% (w/w), HFA 134a, glycerol 1.3% (w/w), actuator orifice 0.25 mm
[23] = BDP 50 mg/10 ml, ethanol 15.0 ± 0.2% (w/w), HFA 134a, glycerol 1.3% (w/w), actuator orifice 0.33 mm
[24] = BDP 50 mg/10 ml, ethanol 15.0 ± 0.2% (w/w), HFA 134a, glycerol 1.6% (w/w), actuator orifice 0.25 mm
[25] = BDP 50 mg/10 ml, ethanol 15.0 ± 0.2% (w/w), HFA 134a, glycerol 1.6% (w/w), actuator orifice 0.33 mm
[26] = BDP 50 mg/10 ml, ethanol 15.0 ± 0.2% (w/w), HFA 227 fill to 12 ml, 0% (w/w) glycerol, actuator orifice 0.33 mm
[27] = BDP 50 mg/10 ml, ethanol 15.0 ± 0.2% (w/w), HFA 227 fill to 12 ml, 1.42% (w/w) glycerol, actuator orifice 0.33 mm
[28] = BDP 50 mg/10 ml, ethanol 15.2 ± 0.4% (w/w), HFA 134a, propylene glycol 0.0% (w/w), actuator orifice 0.42 mm
[29] = BDP 50 mg/10 ml, ethanol 15.2 ± 0.4% (w/w), HFA 134a, propylene glycol 0.7% (w/w), actuator orifice 0.42 mm
[30] = BDP 50 mg/10 ml, ethanol 15.2 ± 0.4% (w/w), HFA 134a, propylene glycol 2.8% (w/w), actuator orifice 0.42 mm
[31] = BDP 50 mg/10 ml, ethanol 15.2 ± 0.4% (w/w), HFA 134a, propylene glycol 6.3% (w/w), actuator orifice 0.42 mm
[32] = combination BDP 50 mg/10 ml + Salbutamol base 20 mg/10 ml, ethanol 15.4 ± 0.2% (w/w), HFA 134a, glycerol 0%, oleic acid 0%, actuator exit orifice 0.33 mm
[33] = combination BDP 50 mg/10 ml + Salbutamol base 20 mg/10 ml, ethanol 15.4 ± 0.2% (w/w), HFA 134a, glycerol 0%, oleic acid 0.3%, actuator exit orifice 0.33 mm
[34] = combination BDP 50 mg/10 ml + Salbutamol base 20 mg/10 ml, ethanol 15.4 ± 0.2% (w/w), HFA 134a, glycerol 0%, oleic acid 1.3%, actuator exit orifice 0.30 mm
[35] = combination BDP 50 mg/10 ml + Salbutamol base 20 mg/10 ml, ethanol 15.4 ± 0.2% (w/w), HFA 134a, glycerol 1.2%, oleic acid 0.3%, actuator exit orifice 0.30 mm
[36] = Flunisolide 50 mg/10 ml, ethanol 15.0 ± 0.1%, HFA 134a, menthol 0% (w/w), glycerol 0% (w/w), actuator orifice 0.30 mm
[37] = Flunisolide 50 mg/10 ml, ethanol 15.0 ± 0.1%, HFA 134a, menthol 0.4% (w/w), glycerol 0.9% (w/w), actuator orifice 0.30 mm
[38] = Salbutamol base 20 mg/10 ml, ethanol 15% (w/w), HFA 134a, glycerol 0% (w/w), oleic acid 0.35% (w/w), actuator orifice 0.30 mm
[39] = Salbutamol base 20 mg/10 ml, ethanol 15% (w/w), HFA 134a, glycerol 1.3% (w/w), oleic acid 0.36% (w/w), actuator orifice 0.30 mm

## CCC(=O)OCC(=O)[C@@]1(OC(=O)CC)[C@@H](C)C[C@H]2[C@@H]3CCC4=CC(=O)C=C[C@]4(C)[C@@]3(Cl)[C@@H](O)C[C@@]21C [BDP, beclomethasone dipropionate]
[1]
  MMAD: 1.1 μm
[2]; [3]
  Fine particle dose: 31.1 µg
  MMAD ± GSD: 0.8 ± 1.8
  Mean emitted dose: 44.7 µg
[2]; [4]
  Fine particle dose: 24.5 µg
  MMAD ± GSD: 0.9 ± 2.0
  Mean emitted dose: 45.1 µg
[2]; [5]
  Fine particle dose: 10.3 µg
  MMAD ± GSD: 1.1 ± 2.3 μm
  Mean emitted dose: 41.8 µg
[2]; [6]
  Fine particle dose: 9.3 µg
  MMAD ± GSD: 1.6 ± 3.4 μm
  Mean emitted dose: 44.0 µg
[2]; [7]
  Fine particle dose: 7.3 µg
  MMAD ± GSD: 2.9 ± 4.1 μm
  Mean emitted dose: 43.6 µg
[2]; [8]
  Fine particle dose: 4.9 µg
  MMAD ± GSD: 4.6 ± 3.9 μm
  Mean emitted dose: 44.9 µg
[2]; [9]
  Fine particle dose: 12.7 µg
  MMAD ± GSD: 1.0 ± 2.1 μm
  Mean emitted dose: 42.9 µg
[2]; [10]
  Fine particle dose: 14.9 µg
  MMAD ± GSD: 1.0 ± 2.2 μm
  Mean emitted dose: 43.2 µg
[2]; [11]
  Fine particle dose: 63.1 µg
  MMAD ± GSD: 1.0 ± 1.8
  Mean emitted dose: 84.8 µg
[2]; [12]
  Fine particle dose: 46.2 µg
  MMAD ± GSD: 1.0 ± 1.9
  Mean emitted dose: 87.6 µg
[2]; [13]
  Fine particle dose: 67.4 µg
  MMAD ± GSD: 1.8 ± 2.2 μm
  Mean emitted dose: 222.1 µg
[2]; [14]
  Fine particle dose: 60.2 µg
  MMAD ± GSD: 1.7 ± 2.2 μm
  Mean emitted dose: 215.1 µg
[2]; [15]
  Fine particle dose: 67.4 µg
  MMAD ± GSD: 1.8 ± 2.2 μm
  Mean emitted dose: 222.1 µg
[2]; [16]
  Fine particle dose: 55.6 µg
  MMAD ± GSD: 2.5 ± 2.2 μm
  Mean emitted dose: 218.9 µg
[2]; [17]
  Fine particle dose: 55.6 µg
  MMAD ± GSD: 2.5 ± 2.2 μm
  Mean emitted dose: 215.0 µg
[2]; [18]
  Fine particle dose: 105.9 µg
  MMAD ± GSD: 1.4 ± 1.9 μm
  Mean emitted dose: 205.8 µg
[2]; [19]
  Fine particle dose: 67.4 µg
  MMAD ± GSD: 1.8 ± 2.2 μm
  Mean emitted dose: 222.1 µg
[2]; [20]
  Fine particle dose: 94.4 µg
  MMAD ± GSD: 2.4 ± 2.0 μm
  Mean emitted dose: 218.3 µg
[2]; [21]
  Fine particle dose: 55.9 µg
  MMAD ± GSD: 2.8 ± 2.2 μm
  Mean emitted dose: 227.9 µg
[2]; [22]
  Fine particle dose: 100.3 µg
  MMAD ± GSD: 2.6 ± 2.0 μm
  Mean emitted dose: 220.8 µg
[2]; [23]
  Fine particle dose: 54.3 µg
  MMAD ± GSD: 3.1 ± 2.3 μm
  Mean emitted dose: 228.4 µg
[2]; [24]
  Fine particle dose: 96.6 µg
  MMAD ± GSD: 2.7 ± 2.0 μm
  Mean emitted dose: 228.0 µg
[2]; [25]
  Fine particle dose: 50.9 µg
  MMAD ± GSD: 3.1 ± 2.3 μm
  Mean emitted dose: 231.7 µg
[2]; [26]
  FPD: 62.1 µg
  GSD: 2.6
  MMAD: 2.2 μm
  Mean emitted dose: 221.25 µg
[2]; [27]
  FPD: 43.5 µg
  GSD: 2.4
  MMAD: 4.1 μm
  Mean emitted dose: 230.5 µg
[2]; [28]
  Fine particle dose: 41.6 µg
  MMAD ± GSD: 1.7 ± 2.3 μm
  Mean emitted dose: 209.1 µg
[2]; [29]
  Fine particle dose: 41.1 µg
  MMAD ± GSD: 2.1 ± 2.7 μm
  Mean emitted dose: 218.4 µg
[2]; [30]
  Fine particle dose: 32.1 µg
  MMAD ± GSD: 3.3 ± 3.2 μm
  Mean emitted dose: 204.2 µg
[2]; [31]
  Fine particle dose: 25.2 µg
  MMAD ± GSD: 4.4 ± 3.8 μm
  Mean emitted dose: 242.6 µg
[2]; [32]
  Emitted dose: 208.9 µg
  FPD: 67.8 µg
  GSD: 2.4
  MMAD: 1.7 μm
[2]; [33]
  Emitted dose: 212.7 µg
  FPD: 60.6 µg
  GSD: 2.3
  MMAD: 2.2 μm
[2]; [34]
  Emitted dose: 212.5 µg
  FPD: 58.5 µg
  GSD: 2.2
  MMAD: 2.4 μm
[2]; [35]
  Emitted dose: 210.8 µg
  FPD: 63.3 µg
  GSD: 2.1
  MMAD: 2.9 μm

## CC1(C)O[C@@H]2C[C@H]3[C@@H]4C[C@H](F)C5=CC(=O)C=C[C@]5(C)[C@H]4[C@@H](O)C[C@]3(C)[C@]2(C(=O)CO)O1 [Flunisolide]
[2]; [36]
  Emitted dose: 217.1 µg
  Fine Particle Dose (FPD): 76.85 µg
  GSD: 2.15
  MMAD: 1.8 µm
[2]; [37]
  Emitted dose: 221.6 µg
  Fine Particle Dose (FPD): 77.84 µg
  GSD: 2.1
  MMAD: 2.9 µm

## CC(C)(C)NCC(O)c1ccc(O)c(CO)c1 (stereo not drawn) [Salbutamol base]
[2]; [38]
  Emitted dose: 85.8 µg
  FPD: 29.1 µg
  GSD: 2.3
  MMAD: 1.7 μm
[2]; [39]
  Emitted dose: 92.0 µg
  FPD: 25.2 µg
  GSD: 2.4
  MMAD: 2.8 μm
[2]; [32]
  Emitted dose: 82.5 µg
  FPD: 26.9 µg
  GSD: 2.2
  MMAD: 1.7 μm
[2]; [33]
  Emitted dose: 84.8 µg
  FPD: 24.0 µg
  GSD: 2.6
  MMAD: 2.0 μm
[2]; [34]
  Emitted dose: 85.9 µg
  FPD: 23.9 µg
  GSD: 2.1
  MMAD: 2.4 μm
[2]; [35]
  Emitted dose: 85.3 µg
  FPD: 25.1 µg
  GSD: 2.0
  MMAD: 3.0 μm
